Earlier results on one compound are cited in EP3807270B1, “NOVEL HETEROARYL HETEROCYCLYL COMPOUNDS FOR THE TREATMENT OF AUTOIMMUNE DISEASE” (F. Hoffmann-La Roche AG, priority 2018, dated 2019).

Structures are written as SMILES.

This series addresses T1, hTLR7 (Homo sapiens, UniProt Q9NYK1).
T1 sequence (Q9NYK1 27-1049): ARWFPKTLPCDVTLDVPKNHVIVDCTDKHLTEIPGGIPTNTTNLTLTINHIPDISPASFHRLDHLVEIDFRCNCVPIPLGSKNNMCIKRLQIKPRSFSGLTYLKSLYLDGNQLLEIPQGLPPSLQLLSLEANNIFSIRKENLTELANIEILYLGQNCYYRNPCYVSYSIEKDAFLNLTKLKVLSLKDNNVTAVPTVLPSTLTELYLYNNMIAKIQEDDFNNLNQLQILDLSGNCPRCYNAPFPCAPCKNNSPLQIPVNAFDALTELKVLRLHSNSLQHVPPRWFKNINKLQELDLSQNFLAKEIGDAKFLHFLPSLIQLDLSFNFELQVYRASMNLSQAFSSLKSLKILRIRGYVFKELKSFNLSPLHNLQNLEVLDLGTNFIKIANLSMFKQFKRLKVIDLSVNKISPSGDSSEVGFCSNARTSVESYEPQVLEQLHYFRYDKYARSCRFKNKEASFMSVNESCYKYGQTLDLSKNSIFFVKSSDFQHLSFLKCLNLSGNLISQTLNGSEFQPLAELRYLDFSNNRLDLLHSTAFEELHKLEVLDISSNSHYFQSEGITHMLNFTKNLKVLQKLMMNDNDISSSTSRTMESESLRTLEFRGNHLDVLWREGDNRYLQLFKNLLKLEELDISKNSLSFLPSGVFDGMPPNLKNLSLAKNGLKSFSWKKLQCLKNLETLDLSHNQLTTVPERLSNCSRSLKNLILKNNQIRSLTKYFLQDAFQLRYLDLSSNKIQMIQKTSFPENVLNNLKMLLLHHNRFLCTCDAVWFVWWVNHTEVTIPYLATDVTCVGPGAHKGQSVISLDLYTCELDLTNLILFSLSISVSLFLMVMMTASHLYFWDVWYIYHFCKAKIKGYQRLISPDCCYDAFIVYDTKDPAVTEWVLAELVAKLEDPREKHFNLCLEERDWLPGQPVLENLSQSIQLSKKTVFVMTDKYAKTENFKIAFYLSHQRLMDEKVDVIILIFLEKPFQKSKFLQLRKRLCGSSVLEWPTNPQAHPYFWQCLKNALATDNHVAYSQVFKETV
Further details: host or cells: HEK. The note with it: data disclosed in US20150105370; read-out: HEK/hTLR7 IC50; cited from earlier work.

With `C[C@@H]1CN(c2ccc(C#N)c3ncccc23)C[C@H](CN2CCN(c3ccncc3)CC2)O1` [ER-888286, reference compound], the IC50 was 1370 nM.
